Data on one compound can be found in US20030220280A1, “Schwann cell bridge implants and phosphodiesterase inhibitors to stimulate CNS nerve regeneration” (priority 2002, published 2003).

Molecules are shown by their SMILES.

Common to all, as to type: in vivo, rat
The subject of assay [1] is rats with a complete spinal cord transection at thoracic cord segment 8. The assay is described as follows: BBB test of hindlimb locomotion after complete spinal cord transection with Schwann cell bridge. The settings on record: rolipram by minipump 0.07 μmol/kg/hr for two weeks, assessed weekly. From the text:
Schwann cells were purified in culture from adult rat sciatic nerve (according to the methods described by Morrissey, Kleitman and Bunge (1991)). The purity of the Schwann cells used for transplantation was between 95 and 98%.
For Schwann cell bridges, cells were suspended in matrigel/DMEM (30:70) and drawn into 3-8 mm long polymer guidance channels at a density of 120×10^6 cells/ml, as described by Xu et al. (1997). During implantation into adult rats (Fischer rats, Charles River Laboratories, 3-5 months old), each cut stump of the severed spinal cord was inserted 1 mm into the channel. Sometimes the Schwann cell cable is transplanted without the guidance channel. Either method, with or without the channel, is readily accomplished by persons who have performed this procedure a number of times and so have gained adequate expertise to accomplish this.
Spinal cords of adult rats were completely transected by surgery at the T8 cord level and the next caudal segment was removed. At the time of transection, a Schwann cell bridge was implanted at the injury site, 50 mM db-cAMP was injected (0.2 μl) or infused (5 μl) into the proximal and distal stump of the lesion and rolipram was delivered subcutaneously via minipump at 0.07 μmol/kg/hr for two weeks. […] Animals were assessed on a weekly basis for hindlimb locomotion, a measure of motor recovery, using the BBB test. […]

Assay [2] relates to rats with a moderate contusion injury at thoracic cord segment 8. The assay can be described thus: BBB test of hindlimb locomotion after moderate contusion injury with Schwann cell injection. To be noted: FIG. 3, tested weekly. The protocol: FIG. 3 compares the effects over time of db-cAMP injection and rolipram on BBB scores of rats receiving Schwann cell transplantation after receiving moderate contusion injury to the spinal cord by weight drop (NYU impactor, 12.5 mm height). Each treatment used 4 injection sites, 2-3 mm rostral and caudal to the injury site and on either side of the midline. Diamonds: 2×10^6 Schwann cells were injected into the injury site with saline injection one week post-injury; squares: 2×10^6 Schwann cells with 0.2 μL×1 mM db-cAMP (four injections) one week postinjury; triangles: 2×10^6 Schwann cells with 0.2 μL×50 mM db-cAMP (four injections) one week post-injury; crosses: 2×10^6 Schwann cells with 0.2 μL×50 mM […] (four injections) one day post-injury; circles: animals received rolipram by minipump starting within 30 minutes of the injury (0.07 μmol/kg/hr for 2 weeks after injury) and 1 week later Schwann cells with 0.2 μL×50 mM db-cAMP (four injections).
(§1) Adult rats (Fischer rats, Charles River Laboratories, 3-5 months old) were injured in the thoracic level of the spinal cord with the NYU weight drop device (NYU impactor) as described in Gruner (1992), and rolipram (0.07 μmol/kg/hr) was administered for two weeks. […]

The test system is the same in assay [3]. The assay is described as follows: Gridwalk test for fine locomotor performance after moderate contusion injury. The settings on record: FIG. 4; 8 weeks after moderate contusion; 1 m gridwalk, maximum 20 errors.
Excerpt: FIG. 4 compares footfall errors in a gridwalking analysis 8 weeks after a moderate contusion injury by weight drop (NYU impactor, 12.5 mm height) followed by db-cAMP administration plus Schwann cell transplantation with or without rolipram. Each treatment used 4 injection sites, 2-3 mm rostral and caudal to the injury site and on either side of the midline. A. Non-injured control; B. 1 week post-injury 2×10^6 Schwann cells injected into the injury site with saline; C. 1 week post-injury 2×10^6 Schwann cells injected with 4×0.2 μL×1 mM db-cAMP; D. 1 week post-injury 2×10^6 Schwann cells with 4×0.2 μL×50 mM db-cAMP; E. 1 day post-injury 2×10^6 Schwann cells with 4×0.2 μL×50 mM db-cAMP; F. animals received rolipram by minipump starting within 30 minutes of the injury (0.07 μmol/kg/hr for 2 weeks after injury) and 1 week later 2×10^6 Schwann cells with 4×0.2 μL×50 mM db-cAMP.
as §1
The number of footfall errors that the animal makes is recorded (maximum is 20, 1 per leg per space between each bar) with higher scores indicating a poor ability to perform the tasks.

The test system is the same in assay [4]. The assay is described as follows: Footprint analysis after moderate contusion injury. The settings on record: FIGS. 5-7; 8 weeks after moderate contusion; conditioned locomotion. The protocol:
FIG. 5 compares stride length in a footprint analysis conducted 8 weeks after a moderate contusion injury by weight drop followed by db-cAMP administration plus Schwann cell transplantation with or without rolipram. Each treatment used 4 injection sites, 2-3 mm rostral and caudal to the injury site and on either side of the midline. A. Non-injured control; B. 1 week post-injury 2×10^6 Schwann cells injected into the injury site with saline; C. […]
FIGS. 5, 6 and 7 illustrate the locomotor patterns of injured rats that received various treatments, tested by inking both the fore- and hind-paws (different colors), allowing them to walk 1 m on an enclosed, flat runway and then analyzing the footprints. Recorded parameters from 8 consecutive steps included the animal's stride length (measured between the central pads of two consecutive prints on each side of the animal), base of support (determined by measuring the distance between the central pads of the hindpaws), and hindfoot outward rotation. […]

Regarding `CCCC(=O)Nc1ncnc2c1ncn2[C@@H]1O[C@@H]2COP(=O)(O)O[C@H]2[C@H]1OC(=O)CCC` [db-cAMP, dibutyryl-cAMP], the “hindlimb locomotion (BBB test)” value is on record as “not observed” in assay [1] (FIG. 1, db-cAMP injected (0.2 μl) into both stumps); “not observed” in assay [1] (FIG. 2, db-cAMP infused (5 μl) into both stumps); “not observed” in assay [2]. In addition, the “ability to perform fine motor tasks (footfall errors on gridwalk)” value in assay [3] is reported as “exhibited many more errors”. Besides, in assay [4], the “outward foot rotation in footprint analysis” value is recorded as “did not exhibit a similar level of recovery”. For the same compound, the “trunk stability (base of support) in footprint analysis” value in assay [4] is “did not exhibit a similar level of recovery”.
